# Results published in patent publication US20230094843A1, “PHARMACEUTICAL COMBINATION FOR TREATING TUMORS AND APPLICATION THEREOF” (FUKANG (SHANGHAI) HEALTH TECHNOLOGY CO., LTD, priority 2019, published 2023).
# Columns and labels:
# [1] = tested on: BRCA-mutant and HER2-negative advanced breast cancer; details: cited from earlier work
# MDA-MB-436 tumor cells = experiment: PBMC humanized MDA-MB-436 subcutaneous tumor grafting model, tumor growth inhibition; type: in vivo, Mus Musculus, NCG; details: for Tumor growth inhibition (%): PG-D24, TGI=(1-T/C)x100% from relative tumor volume, mefuparib HCl 40 mg/kg p.o., Tuoyi 10 mg/kg i.p.; for Tumor volume, Grouping (PG-D0): at grouping, start of treatment, mefuparib HCl 40 mg/kg p.o. qod, Tuoyi 10 mg/kg i.p. q4d; for Tumor volume, Administration (PG-D24): day 24 after grouping, mefuparib HCl 40 mg/kg p.o. qod x 13, Tuoyi 10 mg/kg i.p. q4d x 7
# Protocol: Species: Mus Musculus, NCG (NOD-Prkdc^em26Cd52II2rg^em26Cd22/N ju), female; weight: 18-22 g; quantity: 55; supplier: GemPharmatech.
# MDA-MB-436 tumor cells (YK-CL-075) were purchased from ATCC. The tumor cells were cultured in the Leibovitz's L-15 medium containing inactivated 10% fetal bovine serum, 100 U/mL of penicillin and 100 μg/mL of streptomycin in a 37° C./5% CO2 incubator, and were passaged every 3 to 4 days when the cells were overgrown. The tumor cells in logarithmic phase were used for in vivo tumor grafting.
# PBMCs (human peripheral blood mononuclear cells) were purchased from […] (Donor#: A0075).
# MDA-MB-436 tumor cells were resuspended in a 1:1 (v:v) mixture of PBS and Matrigel at a concentration of 1×10^8 cells/mL, and were grafted subcutaneously at the right flank of mice at 100 μL/mouse. When the tumor grew to about 1000 mm^3, the tumors were aseptically removed and cut into small pieces having dimensions of about 2 mm×2 mm×2 mm, which were grafted subcutaneously at the right flank of experimental animals. After 2 weeks, PBMCs were resuspended in PBS and grafted into mice in an amount of 2×10^6 cells/mouse. The animals were divided into 4 groups of 10 and treated (the day was recorded as PG-D0) when the tumor grew to about 93 mm^3.
# The long and short diameters of the tumor were measured twice every week using a vernier caliper for calculating the tumor volume, and the calculation formula was: volume=0.5×long diameter×[…].
# The T/C value was calculated from the tumor volume, where T is the mean relative tumor volume (RTV) of each treatment group and C is the mean RTV of the control group. RTV is the ratio of tumor volume after the treatment to that before the treatment. Tumor growth inhibition (TGI, %)=(1−T/C)×100%.
# Inter-group statistical analysis was performed on tumor volume using IBM SPSS Statistics 22.0 software and mixed linear model analysis. Inter-group statistical analysis was performed on tumor weight using One-Way ANOVA analysis, with p<0.05 indicating significant differences.
# [2] = tested on: human-derived CD45+ cells (hCD45 cells); experiment: FACS assay of hCD45 in peripheral blood 3 weeks after PBMC grafting; type: in vivo, Mus Musculus, NCG; details: FIG. 4
# Protocol: Three weeks after PBMC grafting, peripheral blood of the mice was collected, and the proportion of human-derived CD45^+ cells (hCD45 cells) therein was determined by flow cytometry (FACS). After the end of study, the tumors was removed, weighed and photographed.
# [3] = cited from earlier work
# Water solubility = type: physicochemical; details: times higher than that of olaparib
# [4] = patients receiving olaparib monotherapy
compound,measurement,setting,value
O=C(c1cc(Cc2n[nH]c(=O)c3ccccc23)ccc1F)N1CCN(C(=O)C2CC2)CC1 [olaparib],grade 3 adverse event: anemia,[1]; associated with olaparib,12%
same,grade 3 adverse event: neutropenia,[1]; associated with olaparib,6%
same,median PFS,[1]; [4],7.0 months
same,response rate,[1]; [4],59.9%
durvalumab,grade 3 adverse event: pancreatitis,[1]; associated with durvalumab,6%
toripalimab [Tuoyi PD-1 monoclonal antibody injection],Tumor growth inhibition (%),MDA-MB-436 tumor cells,29%
same,"Tumor volume, Grouping (PG-D0)",MDA-MB-436 tumor cells,94 ± 7 mm^3
same,"Tumor volume, Administration (PG-D24)",MDA-MB-436 tumor cells,1256 ± 252 mm^3
same,percentage median of hCD45 cells in peripheral blood compared with the control group,[2],higher than that in the control group
"CNCc1ccc(-c2cc3cc(F)cc(C(N)=O)c3o2)cc1.Cl [Mefuparib hydrochloride, mefuparib hydrochloride]",water solubility,[3],> 35 mg/mL
same,Tumor growth inhibition (%),MDA-MB-436 tumor cells; hydrochloride,54%
same,Tumor growth inhibition (%),"MDA-MB-436 tumor cells; listed as mefuparib hydrochloride, hydrochloride",54%
same,"Tumor volume, Grouping (PG-D0)",MDA-MB-436 tumor cells,93 ± 6 mm^3
same,"Tumor volume, Administration (PG-D24)",MDA-MB-436 tumor cells,761 ± 130 mm^3
same,percentage median of hCD45 cells in peripheral blood compared with the control group,[2],higher than that in the control group
same,water solubility relative to olaparib,Water solubility,350 times
